Laboratory results: the supplement of paper PMC10307832

Key:
Test in all cases: relative viability (nuclei count vs DMSO), 5 days (fraction); higher = more cells survive
BMX-IN-1 + Navitoclax = compound: C=CC(=O)Nc1cc(-n2c(=O)ccc3cnc4ccc(-c5ccc(NS(C)(=O)=O)cc5)cc4c32)ccc1C [BMX-IN-1] + CC1(C)CCC(c2ccc(Cl)cc2)=C(CN2CCN(c3ccc(C(=O)NS(=O)(=O)c4ccc(N[C@H](CCN5CCOCC5)CSc5ccccc5)c(S(=O)(=O)C(F)(F)F)c4)cc3)CC2)C1 [Navitoclax] (partner 0.5 µM)
Procedure, shortened: (§1)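 Medians of duplicate plates are given as relative viability. That measure is the nuclei count in treated wells divided by the count in vehicle wells. Counts were taken on 4× images of lung cancer cell lines in 1536-well plates, 5 days after pin-tool dosing the day after seeding with one drug alone or a fixed anchor-drug dose plus five library-drug doses (not always all listed) in √10 steps.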

Ibrutinib + Dasatinib = compound: C=CC(=O)N1CCC[C@@H](n2nc(-c3ccc(Oc4ccccc4)cc3)c3c(N)ncnc32)C1 [Ibrutinib] + Cc1nc(Nc2ncc(C(=O)Nc3c(C)cccc3Cl)s2)cc(N2CCN(CCO)CC2)n1 [Dasatinib] (partner 0.075 µM)
Procedure, shortened: as §1

BMX-IN-1 + Pemetrexed = compound: C=CC(=O)Nc1cc(-n2c(=O)ccc3cnc4ccc(-c5ccc(NS(C)(=O)=O)cc5)cc4c32)ccc1C [BMX-IN-1] + Nc1nc2[nH]cc(CCc3ccc(C(=O)N[C@@H](CCC(=O)O)C(=O)O)cc3)c2c(=O)[nH]1 [Pemetrexed] (partner 0.2 µM)
Procedure, shortened: as §1

BMX-IN-1 + Palbociclib = compound: C=CC(=O)Nc1cc(-n2c(=O)ccc3cnc4ccc(-c5ccc(NS(C)(=O)=O)cc5)cc4c32)ccc1C [BMX-IN-1] + CC(=O)c1c(C)c2cnc(Nc3ccc(N4CCNCC4)cn3)nc2n(C2CCCC2)c1=O [Palbociclib] (partner 0.5 µM)
Procedure, shortened: as §1

## NCI-H1666
BMX-IN-1 + Navitoclax; first compound 0.02 µM
  relative viability: 1.09
BMX-IN-1 + Navitoclax; first compound 0.2 µM
  relative viability: 0.979
BMX-IN-1 + Navitoclax; first compound 0.6325 µM
  relative viability: 0.938
BMX-IN-1 + Navitoclax; first compound 2 µM
  relative viability: 0.92
Ibrutinib + Dasatinib; first compound 0.005 µM
  relative viability: 0.841
Ibrutinib + Dasatinib; first compound 0.01581 µM
  relative viability: 0.807
Ibrutinib + Dasatinib; first compound 0.05 µM
  relative viability: 0.803
Ibrutinib + Dasatinib; first compound 0.1581 µM
  relative viability: 0.896
Ibrutinib + Dasatinib; first compound 0.5 µM
  relative viability: 0.706
BMX-IN-1 + Pemetrexed; first compound 0.02 µM
  relative viability: 0.908
BMX-IN-1 + Pemetrexed; first compound 0.2 µM
  relative viability: 0.881
BMX-IN-1 + Pemetrexed; first compound 0.6325 µM
  relative viability: 0.877
BMX-IN-1 + Pemetrexed; first compound 2 µM
  relative viability: 0.867
BMX-IN-1 + Palbociclib; first compound 0.02 µM
  relative viability: 0.64
BMX-IN-1 + Palbociclib; first compound 0.2 µM
  relative viability: 0.672
BMX-IN-1 + Palbociclib; first compound 0.6325 µM
  relative viability: 0.606
BMX-IN-1 + Palbociclib; first compound 2 µM
  relative viability: 0.628

## NCI-H650
Ibrutinib + Dasatinib; first compound 0.005 µM
  relative viability: 0.408
Ibrutinib + Dasatinib; first compound 0.01581 µM
  relative viability: 0.484
Ibrutinib + Dasatinib; first compound 0.05 µM
  relative viability: 0.378
Ibrutinib + Dasatinib; first compound 0.1581 µM
  relative viability: 0.491
Ibrutinib + Dasatinib; first compound 0.5 µM
  relative viability: 0.465
BMX-IN-1 + Pemetrexed; first compound 0.02 µM
  relative viability: 0.926
BMX-IN-1 + Pemetrexed; first compound 0.2 µM
  relative viability: 0.961
BMX-IN-1 + Pemetrexed; first compound 0.6325 µM
  relative viability: 0.956
BMX-IN-1 + Pemetrexed; first compound 2 µM
  relative viability: 0.919
BMX-IN-1 + Palbociclib; first compound 0.02 µM
  relative viability: 0.293
BMX-IN-1 + Palbociclib; first compound 0.2 µM
  relative viability: 0.332
BMX-IN-1 + Palbociclib; first compound 0.6325 µM
  relative viability: 0.331
BMX-IN-1 + Palbociclib; first compound 2 µM
  relative viability: 0.353

## EPLC-272H
BMX-IN-1 + Navitoclax; first compound 0.02 µM
  relative viability: 1.25
BMX-IN-1 + Navitoclax; first compound 0.2 µM
  relative viability: 1.22
BMX-IN-1 + Navitoclax; first compound 0.6325 µM
  relative viability: 1.08
BMX-IN-1 + Navitoclax; first compound 2 µM
  relative viability: 1.18
Ibrutinib + Dasatinib; first compound 0.005 µM
  relative viability: 0.274
Ibrutinib + Dasatinib; first compound 0.01581 µM
  relative viability: 0.294
Ibrutinib + Dasatinib; first compound 0.05 µM
  relative viability: 0.284
Ibrutinib + Dasatinib; first compound 0.1581 µM
  relative viability: 0.279
Ibrutinib + Dasatinib; first compound 0.5 µM
  relative viability: 0.188
BMX-IN-1 + Pemetrexed; first compound 0.02 µM
  relative viability: 0.304
BMX-IN-1 + Pemetrexed; first compound 0.2 µM
  relative viability: 0.278
BMX-IN-1 + Pemetrexed; first compound 0.6325 µM
  relative viability: 0.235
BMX-IN-1 + Pemetrexed; first compound 2 µM
  relative viability: 0.316
BMX-IN-1 + Palbociclib; first compound 0.02 µM
  relative viability: 0.323
BMX-IN-1 + Palbociclib; first compound 0.2 µM
  relative viability: 0.324
BMX-IN-1 + Palbociclib; first compound 0.6325 µM
  relative viability: 0.323
BMX-IN-1 + Palbociclib; first compound 2 µM
  relative viability: 0.317

## LCLC-103H
Ibrutinib + Dasatinib; first compound 0.005 µM
  relative viability: 0.496
Ibrutinib + Dasatinib; first compound 0.01581 µM
  relative viability: 0.432
Ibrutinib + Dasatinib; first compound 0.05 µM
  relative viability: 0.454
Ibrutinib + Dasatinib; first compound 0.1581 µM
  relative viability: 0.489
Ibrutinib + Dasatinib; first compound 0.5 µM
  relative viability: 0.318
BMX-IN-1 + Pemetrexed; first compound 0.02 µM
  relative viability: 0.444
BMX-IN-1 + Pemetrexed; first compound 0.2 µM
  relative viability: 0.546
BMX-IN-1 + Pemetrexed; first compound 0.6325 µM
  relative viability: 0.467
BMX-IN-1 + Pemetrexed; first compound 2 µM
  relative viability: 0.418
BMX-IN-1 + Palbociclib; first compound 0.02 µM
  relative viability: 0.475
BMX-IN-1 + Palbociclib; first compound 0.2 µM
  relative viability: 0.532
BMX-IN-1 + Palbociclib; first compound 0.6325 µM
  relative viability: 0.479
BMX-IN-1 + Palbociclib; first compound 2 µM
  relative viability: 0.412

## NCI-H358
Ibrutinib + Dasatinib; first compound 0.005 µM
  relative viability: 0.149
Ibrutinib + Dasatinib; first compound 0.05 µM
  relative viability: 0.136
Ibrutinib + Dasatinib; first compound 0.1581 µM
  relative viability: 0.152
Ibrutinib + Dasatinib; first compound 0.5 µM
  relative viability: 0.0966
BMX-IN-1 + Pemetrexed; first compound 0.02 µM
  relative viability: 0.167
BMX-IN-1 + Pemetrexed; first compound 0.2 µM
  relative viability: 0.182
BMX-IN-1 + Pemetrexed; first compound 0.6325 µM
  relative viability: 0.176
BMX-IN-1 + Pemetrexed; first compound 2 µM
  relative viability: 0.175
BMX-IN-1 + Palbociclib; first compound 0.02 µM
  relative viability: 0.129
BMX-IN-1 + Palbociclib; first compound 0.2 µM
  relative viability: 0.138
BMX-IN-1 + Palbociclib; first compound 0.6325 µM
  relative viability: 0.147
BMX-IN-1 + Palbociclib; first compound 2 µM
  relative viability: 0.122

## IA-LM
BMX-IN-1 + Navitoclax; first compound 0.02 µM
  relative viability: 0.937
BMX-IN-1 + Navitoclax; first compound 0.2 µM
  relative viability: 0.796
BMX-IN-1 + Navitoclax; first compound 0.6325 µM
  relative viability: 0.807
BMX-IN-1 + Navitoclax; first compound 2 µM
  relative viability: 0.722

## NCI-H596
BMX-IN-1 + Navitoclax; first compound 0.02 µM
  relative viability: 0.906
BMX-IN-1 + Navitoclax; first compound 0.2 µM
  relative viability: 1.08
BMX-IN-1 + Navitoclax; first compound 0.6325 µM
  relative viability: 1.07
BMX-IN-1 + Navitoclax; first compound 2 µM
  relative viability: 0.816
Ibrutinib + Dasatinib; first compound 0.01581 µM
  relative viability: 0.545
Ibrutinib + Dasatinib; first compound 0.05 µM
  relative viability: 0.579
Ibrutinib + Dasatinib; first compound 0.1581 µM
  relative viability: 0.5
Ibrutinib + Dasatinib; first compound 0.5 µM
  relative viability: 0.564
BMX-IN-1 + Pemetrexed; first compound 0.02 µM
  relative viability: 0.497
BMX-IN-1 + Pemetrexed; first compound 0.2 µM
  relative viability: 0.522
BMX-IN-1 + Pemetrexed; first compound 0.6325 µM
  relative viability: 0.496
BMX-IN-1 + Pemetrexed; first compound 2 µM
  relative viability: 0.511

## NCI-H1299
BMX-IN-1 + Navitoclax; first compound 0.02 µM
  relative viability: 1.08
BMX-IN-1 + Navitoclax; first compound 0.2 µM
  relative viability: 1.05
BMX-IN-1 + Navitoclax; first compound 0.6325 µM
  relative viability: 1.05
BMX-IN-1 + Navitoclax; first compound 2 µM
  relative viability: 1.06

## NCI-H727
BMX-IN-1 + Navitoclax; first compound 0.02 µM
  relative viability: 0.333
BMX-IN-1 + Navitoclax; first compound 0.2 µM
  relative viability: 0.443
BMX-IN-1 + Navitoclax; first compound 0.6325 µM
  relative viability: 0.471
BMX-IN-1 + Navitoclax; first compound 2 µM
  relative viability: 0.426
Ibrutinib + Dasatinib; first compound 0.01581 µM
  relative viability: 0.393
Ibrutinib + Dasatinib; first compound 0.05 µM
  relative viability: 0.424
Ibrutinib + Dasatinib; first compound 0.5 µM
  relative viability: 0.298
BMX-IN-1 + Palbociclib; first compound 0.02 µM
  relative viability: 0.611
BMX-IN-1 + Palbociclib; first compound 0.2 µM
  relative viability: 0.672
BMX-IN-1 + Palbociclib; first compound 0.6325 µM
  relative viability: 0.625
BMX-IN-1 + Palbociclib; first compound 2 µM
  relative viability: 0.592

## NCI-H1648
BMX-IN-1 + Pemetrexed; first compound 0.02 µM
  relative viability: 0.733
BMX-IN-1 + Pemetrexed; first compound 0.2 µM
  relative viability: 0.721
BMX-IN-1 + Pemetrexed; first compound 0.6325 µM
  relative viability: 0.875
BMX-IN-1 + Pemetrexed; first compound 2 µM
  relative viability: 0.765
BMX-IN-1 + Palbociclib; first compound 0.02 µM
  relative viability: 0.251
BMX-IN-1 + Palbociclib; first compound 0.2 µM
  relative viability: 0.256
BMX-IN-1 + Palbociclib; first compound 0.6325 µM
  relative viability: 0.286
BMX-IN-1 + Palbociclib; first compound 2 µM
  relative viability: 0.31

## NCI-H1703
BMX-IN-1 + Navitoclax; first compound 0.02 µM
  relative viability: 1.25
BMX-IN-1 + Navitoclax; first compound 0.2 µM
  relative viability: 1.3
BMX-IN-1 + Navitoclax; first compound 0.6325 µM
  relative viability: 1.29
BMX-IN-1 + Navitoclax; first compound 2 µM
  relative viability: 0.942

## NCI-H2342
Ibrutinib + Dasatinib; first compound 0.005 µM
  relative viability: 0.314
Ibrutinib + Dasatinib; first compound 0.01581 µM
  relative viability: 0.315
Ibrutinib + Dasatinib; first compound 0.05 µM
  relative viability: 0.294
Ibrutinib + Dasatinib; first compound 0.1581 µM
  relative viability: 0.279
Ibrutinib + Dasatinib; first compound 0.5 µM
  relative viability: 0.276
BMX-IN-1 + Pemetrexed; first compound 0.02 µM
  relative viability: 0.815
BMX-IN-1 + Pemetrexed; first compound 0.2 µM
  relative viability: 0.802
BMX-IN-1 + Pemetrexed; first compound 0.6325 µM
  relative viability: 0.97
BMX-IN-1 + Pemetrexed; first compound 2 µM
  relative viability: 0.796
BMX-IN-1 + Palbociclib; first compound 0.02 µM
  relative viability: 0.578
BMX-IN-1 + Palbociclib; first compound 0.2 µM
  relative viability: 0.519
BMX-IN-1 + Palbociclib; first compound 0.6325 µM
  relative viability: 0.51
BMX-IN-1 + Palbociclib; first compound 2 µM
  relative viability: 0.568

## NCI-H1623
Ibrutinib + Dasatinib; first compound 0.005 µM
  relative viability: 0.604
Ibrutinib + Dasatinib; first compound 0.01581 µM
  relative viability: 0.515
Ibrutinib + Dasatinib; first compound 0.05 µM
  relative viability: 0.461
Ibrutinib + Dasatinib; first compound 0.1581 µM
  relative viability: 0.316
Ibrutinib + Dasatinib; first compound 0.5 µM
  relative viability: 0.244

## SW 900
Ibrutinib + Dasatinib; first compound 0.05 µM
  relative viability: 0.683
Ibrutinib + Dasatinib; first compound 0.1581 µM
  relative viability: 0.554
Ibrutinib + Dasatinib; first compound 0.5 µM
  relative viability: 0.578
BMX-IN-1 + Pemetrexed; first compound 0.02 µM
  relative viability: 0.529
BMX-IN-1 + Pemetrexed; first compound 0.2 µM
  relative viability: 0.5
BMX-IN-1 + Pemetrexed; first compound 0.6325 µM
  relative viability: 0.485
BMX-IN-1 + Pemetrexed; first compound 2 µM
  relative viability: 0.425
BMX-IN-1 + Palbociclib; first compound 0.02 µM
  relative viability: 0.467
BMX-IN-1 + Palbociclib; first compound 0.2 µM
  relative viability: 0.676
BMX-IN-1 + Palbociclib; first compound 0.6325 µM
  relative viability: 0.53
BMX-IN-1 + Palbociclib; first compound 2 µM
  relative viability: 0.626

## ABC-1
Ibrutinib + Dasatinib; first compound 0.005 µM
  relative viability: 0.493
Ibrutinib + Dasatinib; first compound 0.05 µM
  relative viability: 0.628
Ibrutinib + Dasatinib; first compound 0.1581 µM
  relative viability: 0.555
Ibrutinib + Dasatinib; first compound 0.5 µM
  relative viability: 0.633
BMX-IN-1 + Palbociclib; first compound 0.02 µM
  relative viability: 0.76
BMX-IN-1 + Palbociclib; first compound 0.2 µM
  relative viability: 0.503
BMX-IN-1 + Palbociclib; first compound 0.6325 µM
  relative viability: 0.537
BMX-IN-1 + Palbociclib; first compound 2 µM
  relative viability: 0.589
